Source: paper PMC3276110 (ACS Medicinal Chemistry Letters, 2011)

Tested on: multidrug-resistant Dd2 P. falciparum parasites
Test: growth inhibition assay
Assay type: cell-based
Conditions: Plasmodium falciparum, DD2, 72 h, read-out: Dd2 GI50, Dd2 intraerythrocytic parasites, 72 h, DAPI

Structure (SMILES) | GI50 [nM]
C[C@@H]1CN([C@@H](C)CO)C(=O)c2cc(NC(=O)Nc3ccccc3)ccc2O[C@@H](C)CCCCO[C@H]1CN(C)C(=O)OC(C)(C)C [Compound 17] | > 1400
C[C@@H]1CN(CCO)C(=O)c2cc(NC(=O)Nc3ccccc3)ccc2O[C@@H](C)CCCCO[C@H]1CN(C)S(=O)(=O)c1ccc(F)cc1 [Compound 30] | 630
